# Assay results taken from ChEMBL document CHEMBL1909294, “Translating clinical findings into knowledge in drug safety evaluation--drug induced liver injury prediction system (DILIps)” (PLoS Comput Biol, 2011).
# Key:
# Hepatotoxicity [1] = tested on: Hepatotoxicity;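 as to HepSE bilirubinemia: bilirubinemia hepatic side effect score drawn from the DILIps training data, a prediction system for drug-induced liver injury; call rule not given here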;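 as to HepSE cholecystitis: Cholecystitis-related hepatic side effect score drawn from the DILIps (drug-induced liver injury prediction) training data set; call rule not given here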;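 as to HepSE cholelithiasis: hepatic side effect score for cholelithiasis, drawn from the DILIps training data for predicting drug-induced liver injury; call rule not given here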;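 as to HepSE cirrhosis: cirrhosis hepatic side effect score taken from the DILIps (drug-induced liver injury prediction) training set; call rule not given here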;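 as to HepSE elevated liver function tests: hepatic side effect score for raised liver function tests, as recorded in the DILIps training set used for predicting drug-induced liver injury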; as to HepSE hepatic failure: call rule not given here;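 as to HepSE hepatomegaly: hepatic side effect score for hepatomegaly, taken from the training set of the DILIps drug-induced liver injury prediction system; call rule not given here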
# Hepatotoxicity [2] = tested on: Hepatotoxicity; remark: listed apart in the source;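 as to HepSE bilirubinemia: bilirubinemia hepatic side effect score drawn from the DILIps training data, a prediction system for drug-induced liver injury; call rule not given here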;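 as to HepSE cholecystitis: Cholecystitis-related hepatic side effect score drawn from the DILIps (drug-induced liver injury prediction) training data set; call rule not given here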;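 as to HepSE cholelithiasis: hepatic side effect score for cholelithiasis, drawn from the DILIps training data for predicting drug-induced liver injury; call rule not given here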;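 as to HepSE cirrhosis: cirrhosis hepatic side effect score taken from the DILIps (drug-induced liver injury prediction) training set; call rule not given here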;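 as to HepSE elevated liver function tests: hepatic side effect score for raised liver function tests, as recorded in the DILIps training set used for predicting drug-induced liver injury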; as to HepSE hepatic failure: call rule not given here
# Hepatotoxicity [3] = tested on: Hepatotoxicity; remark: listed apart in the source;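 as to HepSE bilirubinemia: bilirubinemia hepatic side effect score drawn from the DILIps training data, a prediction system for drug-induced liver injury; call rule not given here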;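 as to HepSE cholecystitis: Cholecystitis-related hepatic side effect score drawn from the DILIps (drug-induced liver injury prediction) training data set; call rule not given here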;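 as to HepSE cholelithiasis: hepatic side effect score for cholelithiasis, drawn from the DILIps training data for predicting drug-induced liver injury; call rule not given here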;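 as to HepSE cirrhosis: cirrhosis hepatic side effect score taken from the DILIps (drug-induced liver injury prediction) training set; call rule not given here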;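 as to HepSE elevated liver function tests: hepatic side effect score for raised liver function tests, as recorded in the DILIps training set used for predicting drug-induced liver injury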; as to HepSE hepatic failure: call rule not given here
# Hepatotoxicity [4] = tested on: Hepatotoxicity; remark: listed apart in the source;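 as to HepSE bilirubinemia: bilirubinemia hepatic side effect score drawn from the DILIps training data, a prediction system for drug-induced liver injury; call rule not given here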;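 as to HepSE cholecystitis: Cholecystitis-related hepatic side effect score drawn from the DILIps (drug-induced liver injury prediction) training data set; call rule not given here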;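 as to HepSE cholelithiasis: hepatic side effect score for cholelithiasis, drawn from the DILIps training data for predicting drug-induced liver injury; call rule not given here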;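 as to HepSE cirrhosis: cirrhosis hepatic side effect score taken from the DILIps (drug-induced liver injury prediction) training set; call rule not given here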;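 as to HepSE elevated liver function tests: hepatic side effect score for raised liver function tests, as recorded in the DILIps training set used for predicting drug-induced liver injury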; as to HepSE hepatic failure: call rule not given here
# Hepatotoxicity [5] = tested on: Hepatotoxicity; remark: listed apart in the source; as to HepSE hepatic failure: call rule not given here
# Hepatotoxicity [6] = tested on: Hepatotoxicity; remark: listed apart in the source; as to HepSE hepatic failure: call rule not given here
# Hepatotoxicity [7] = tested on: Hepatotoxicity; remark: listed apart in the source
# Hepatotoxicity [8] = tested on: Hepatotoxicity; remark: listed apart in the source
# Hepatotoxicity [9] = tested on: Hepatotoxicity; remark: listed apart in the source
# Hepatotoxicity [10] = tested on: Hepatotoxicity; remark: listed apart in the source
# Hepatotoxicity [11] = tested on: Hepatotoxicity; remark: listed apart in the source
# Hepatotoxicity [12] = tested on: Hepatotoxicity; remark: listed apart in the source
# Hepatotoxicity [13] = tested on: Hepatotoxicity; remark: listed apart in the source
# Hepatotoxicity [14] = tested on: Hepatotoxicity; remark: listed apart in the source
SMILES,HepSE_bilirubinemia (Hepatotoxicity [1]),HepSE_cholecystitis (Hepatotoxicity [2]),HepSE_cholelithiasis (Hepatotoxicity [3]),HepSE_cirrhosis (Hepatotoxicity [4]),HepSE_elevated liver function tests (Hepatotoxicity [5]),HepSE_hepatic failure (Hepatotoxicity [6]),HepSE_hepatic necrosis (Hepatotoxicity [7]),HepSE_hepatitis (Hepatotoxicity [8]),HepSE_hepatomegaly (Hepatotoxicity [9]),HepSE_jaundice (Hepatotoxicity [10]),HepSE_liver disease (Hepatotoxicity [11]),HepSE_liver fatty (Hepatotoxicity [12]),HepSE_liver function tests abnormal (Hepatotoxicity [13]),HepSE_Combined Scores (Hepatotoxicity [14]),further results
COc1c(N2CCNC(C)C2)c(F)cc2c(=O)c(C(=O)O)cn(C3CC3)c12 (configuration not stated) [GATIFLOXACIN],0,0,0,0,0,0,0,1,0,0,0,0,0,1,–
COc1cc2ncnc(Nc3ccc(F)c(Cl)c3)c2cc1OCCCN1CCOCC1 [GEFITINIB],0,0,0,0,0,0,0,0,0,0,0,0,0,0,–
Nc1ccn([C@@H]2O[C@H](CO)[C@@H](O)C2(F)F)c(=O)n1 [GEMCITABINE],0,0,0,0,0,1,0,0,0,0,0,0,0,1,–
Cc1ccc(C)c(OCCCC(C)(C)C(=O)O)c1 [GEMFIBROZIL],0,1,1,0,0,0,0,0,0,1,0,0,1,4,–
CO/N=C1\CN(c2nc3c(cc2F)c(=O)c(C(=O)O)cn3C2CC2)CC1CN (configuration not stated) [GEMIFLOXACIN],1,0,0,0,0,0,0,1,0,1,0,0,0,3,–
Cc1ccc(S(=O)(=O)NC(=O)NN2CC3CCCC3C2)cc1 (configuration not stated) [GLICLAZIDE],0,0,0,0,0,1,0,1,1,1,0,0,0,4,–
CCC1=C(C)CN(C(=O)NCCc2ccc(S(=O)(=O)NC(=O)N[C@H]3CC[C@H](C)CC3)cc2)C1=O [GLIMEPIRIDE],0,0,0,0,0,1,0,1,0,1,0,0,0,3,–
NC(=O)CC[C@H](N)C(=O)O [GLUTAMINE],0,0,0,0,0,0,0,0,0,0,0,0,0,0,–
COc1ccc(Cl)cc1C(=O)NCCc1ccc(S(=O)(=O)NC(=O)NC2CCCCC2)cc1 [GLYBURIDE],0,0,0,0,0,1,0,1,0,1,0,0,0,3,–
NCC(=O)O [GLYCINE],–,–,–,–,–,–,–,–,–,–,–,–,–,–,HepSE_bilirubinemia (Hepatotoxicity [1]; Liver): 0; HepSE_cholecystitis (Hepatotoxicity [2]; Liver): 0; HepSE_cholelithiasis (Hepatotoxicity [3]; Liver): 0; HepSE_cirrhosis (Hepatotoxicity [4]; Liver): 0; HepSE_elevated liver function tests (Hepatotoxicity [5]; Liver): 0; HepSE_hepatic failure (Hepatotoxicity [6]; Liver): 0; HepSE_hepatic necrosis (Hepatotoxicity [7]; Liver): 0; HepSE_hepatitis (Hepatotoxicity [8]; Liver): 0; HepSE_hepatomegaly (Hepatotoxicity [9]; Liver): 0; HepSE_jaundice (Hepatotoxicity [10]; Liver): 0; HepSE_liver disease (Hepatotoxicity [11]; Liver): 0; HepSE_liver fatty (Hepatotoxicity [12]; Liver): 0; HepSE_liver function tests abnormal (Hepatotoxicity [13]; Liver): 0; HepSE_Combined Scores (Hepatotoxicity [14]; Liver): 0
CC(C)C[C@H](NC(=O)[C@@H](COC(C)(C)C)NC(=O)[C@H](Cc1ccc(O)cc1)NC(=O)[C@H](CO)NC(=O)[C@H](Cc1c[nH]c2ccccc12)NC(=O)[C@H](Cc1cnc[nH]1)NC(=O)[C@@H]1CCC(=O)N1)C(=O)N[C@@H](CCCNC(=N)N)C(=O)N1CCC[C@H]1C(=O)NNC(N)=O [GOSERELIN],0,0,0,0,0,0,0,0,0,0,0,0,0,0,–
CN1C2CCCC1CC(NC(=O)c1nn(C)c3ccccc13)C2 (configuration not stated) [GRANISETRON],1,0,0,0,0,0,0,0,0,1,0,0,1,3,–
COC1=CC(=O)C[C@@H](C)[C@]12Oc1c(Cl)c(OC)cc(OC)c1C2=O [GRISEOFULVIN],0,0,0,0,0,0,0,0,0,0,0,0,0,0,–
